Columns and labels:
[1] = biological target: Beta Secretase enzyme (BACE) (Homo sapiens (Human), UniProt P56817); experiment: In vitro enzymatic BACE FRET assay; format: biochemical; settings: read-out: BACE1 Enzyme assay IC50
Cathepsin D (Cat D) = Cathepsin D (Cat D) (Homo sapiens (Human), UniProt P07339); experiment: In vitro enzymatic Cathepsin D (Cat D) FRET assay; format: biochemical; settings: read-out: CatD IC50
BACE = BACE (Homo sapiens (Human), UniProt P56817); experiment: In vitro BACE cell-based assay (Aβ40 in conditioned medium, sandwich ELISA)
Sequence of BACE (P56817 46-501, species assumed): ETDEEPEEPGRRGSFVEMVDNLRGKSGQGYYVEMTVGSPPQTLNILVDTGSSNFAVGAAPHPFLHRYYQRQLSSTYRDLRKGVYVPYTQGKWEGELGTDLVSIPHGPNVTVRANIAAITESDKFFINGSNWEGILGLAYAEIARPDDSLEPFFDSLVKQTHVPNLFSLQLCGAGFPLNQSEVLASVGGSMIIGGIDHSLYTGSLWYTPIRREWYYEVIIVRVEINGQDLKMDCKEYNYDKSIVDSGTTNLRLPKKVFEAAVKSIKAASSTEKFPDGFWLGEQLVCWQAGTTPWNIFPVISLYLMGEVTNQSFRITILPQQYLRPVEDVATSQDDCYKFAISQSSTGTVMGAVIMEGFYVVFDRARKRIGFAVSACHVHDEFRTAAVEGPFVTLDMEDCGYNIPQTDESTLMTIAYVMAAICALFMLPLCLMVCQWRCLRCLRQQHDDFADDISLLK

Sequence of Beta Secretase enzyme (BACE) (P56817 46-501): as the sequence (P56817 46-501, species assumed) above
Sequence of Cathepsin D (Cat D) (P07339 65-412, species assumed): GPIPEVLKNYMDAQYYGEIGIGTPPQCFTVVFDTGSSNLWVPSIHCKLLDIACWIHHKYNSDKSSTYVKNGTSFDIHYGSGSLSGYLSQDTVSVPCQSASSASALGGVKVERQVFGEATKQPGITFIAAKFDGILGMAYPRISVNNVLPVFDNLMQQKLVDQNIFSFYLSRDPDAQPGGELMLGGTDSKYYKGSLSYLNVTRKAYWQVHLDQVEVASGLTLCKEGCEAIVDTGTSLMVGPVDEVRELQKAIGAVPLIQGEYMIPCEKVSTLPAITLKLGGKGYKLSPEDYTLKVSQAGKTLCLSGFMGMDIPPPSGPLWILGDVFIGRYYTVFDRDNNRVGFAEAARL

Structure (SMILES)	IC50 [1] [nM]	IC50 (Cathepsin D (Cat D)) [µM]	IC50 (BACE) [µM]
NC1=N[C@](c2cccc(NC(=O)c3ccc(Cl)cn3)c2)(C(F)F)[C@@H]2C[C@@H]2O1 [Example 264, N-(3-((1 S,5R,6S)-3-amino-5-(difluoromethyl)-2-oxa-4-azabicyclo[4.1.0]hept-3-en-5-yl)phenyl)-5-chloropicolinamide]	35900	> 400	> 15.6
NC1=N[C@@](c2cc(NC(=O)c3ncc(Cl)cc3F)ccc2F)(C(F)F)[C@H]2C[C@H]2O1 [Example 129]	38.9	1280	0.0403
NC1=N[C@@](c2cc(NC(=O)c3ncc(Cl)cn3)ccc2F)(C(F)F)[C@H]2C[C@H]2O1 [Example 119, N-(3-((1R,5S,6R)-3-amino-5-(difluoromethyl)-2-oxa-4-azabicyclo[4.1.0]hept-3-en-5-yl)-4-fluorophenyl)-5-chloropyrimidine-2-carboxamide]	55.9	2990	0.0524
COc1cnc(C(=O)Nc2cc(Cl)c(F)c([C@@]3(CF)N=C(N)O[C@@H]4C[C@@H]43)c2)cn1 [Example 85, N-(3-((1R,5S,6R)-3-amino-5-(fluoromethyl)-2-oxa-4-azabicyclo[4.1.0]hept-3-en-5-yl)-5-chloro-4-fluorophenyl)-5-methoxypyrazine-2-carboxamide]	34	373	0.0067
N#Cc1ccc(C(=O)Nc2cc(F)c(Cl)c([C@]3(CF)N=C(N)O[C@H]4C[C@H]43)c2)nc1 (racemic) [Example 136, N-(3-((1R/S,5S/R,6R/S)-3-amino-5-(fluoromethyl)-2-oxa-4-4-azabicyclo[4.1.0]hept-3-en-5-yl)-4-chloro-5-fluorophenyl)-5-cyanopicolinamide]	120	491	0.0214
NC1=N[C@@](c2cc(NC(=O)c3ncc(Cl)cc3Cl)ccc2Cl)(C(F)F)[C@H]2C[C@H]2O1 [Example 211, N-(3-((1R,5S,6R)-3-amino-5-(difluoromethyl)-2-oxa-4-azabicyclo[4.1.0]hept-3-en-5-yl)-4-chlorophenyl)-3,5-dichloropicolinamide]	12.6	> 400	0.0147
COc1ccc(C(=O)Nc2ccc(F)c([C@]3(CF)N=C(N)O[C@H]4C[C@H]43)c2F)nc1 [Example 78, N-(3-((1S,5R,6S)-3-amino-5-(fluoromethyl)-2-oxa-4-azabicyclo[4.1.0]hept-3-en-5-yl)-2,4-difluorophenyl)-5-methoxypicolinamide]	> 40000	> 400	> 15.6
N#Cc1ccc(C(=O)Nc2ccc(Cl)c([C@]3(CF)N=C(N)O[C@H]4C[C@H]43)c2)nc1 [Example 278, N-(3-((1 S,5R,6S)-3-amino-5-(fluoromethyl)-2-oxa-4-azabicyclo[4.1.0]hept-3-en-5-yl)-4-chlorophenyl)-5-cyanopicolinamide]	9510	904	2.64
NC1=N[C@](CF)(c2cc(Nc3nccc4cc(Cl)cnc34)cc(F)c2F)[C@@H]2C[C@@H]2O1 [Example 341, (1S,5S,6S)-5-(5-((3-chloro-1,7-naphthyridin-8-yl)amino)-2,3-difluorophenyl)-5-(fluoromethyl)-2-oxa-4-azabicyclo[4.1.0]hept-3-en-3-amine]	3410	2890	3.41
Cc1cc(C(F)(F)F)cnc1C(=O)Nc1cc(F)c(F)c([C@@]2(CF)N=C(N)O[C@@H]3C[C@@H]32)c1 [Example 51]	62.7	113	0.0143
NC1=N[C@](CF)(c2cc(NC(=O)c3cc4ccccc4cn3)ccc2F)[C@H]2C[C@H]2O1 [Example 202, N-(3-((1R,5S,6R)-3-amino-5-(fluoromethyl)-2-oxa-4-azabicyclo[4.1.0]hept-3-en-5-yl)-4-fluorophenyl) isoquinoline-3-carboxamide]	500	430	0.159
C#CCOc1cnc(C(=O)Nc2cnc(F)c([C@@]3(CF)N=C(N)O[C@@H]4C[C@@H]43)c2)cn1 [Example 206, N-(5-((1R,5S,6R)-3-amino-5-(fluoromethyl)-2-oxa-4-azabicyclo[4.1.0]hept-3-en-5-yl)-6-fluoropyridin-3-yl)-5-(prop-2-yn-1-yloxy)pyrazine-2-carboxamide]	9.4	311	0.0064
Cc1cc(C(F)(F)F)cnc1C(=O)Nc1ccc(Cl)c([C@@]2(CF)N=C(N)O[C@@H]3C[C@@H]32)c1 [Example 125, N-(3-((1R,5S,6R)-3-amino-5-(fluoromethyl)-2-oxa-4-azabicyclo[4.1.0]hept-3-en-5-yl)-4-chlorophenyl)-3-methyl-5-(trifluoromethyl) picolinamide]	80.6	> 400	0.0086
Cc1cc(C#N)cnc1C(=O)Nc1ccc(Cl)c([C@@]2(C(F)F)N=C(N)O[C@@H]3C[C@@H]32)c1 [Example 223, N-(3-((1R,5S,6R)-3-amino-5-(difluoromethyl)-2-oxa-4-azabicyclo[4.1.0]hept-3-en-5-yl)-4-chlorophenyl)-5-cyano-3-methylpicolinamide]	18.4	541	0.0314

Further lines, results first:

IC50 [1] [nM]	IC50 (Cathepsin D (Cat D)) [µM]	IC50 (BACE) [µM]	Structure (SMILES)
11200	102	2.67	NC1=N[C@@](c2cc(NC[C@@H]3C[C@H]3c3ccccc3)ccc2F)(C(F)F)[C@H]2C[C@H]2O1 [Example 371, (1R,5S,6R)-5-(difluoromethyl)-5-(2-fluoro-5-((((l(S,R),2(S,R))-2-phenylcyclopropyl)methyl)amino)phenyl)-2-oxa-4-azabicyclo[4.1.0]hept-3-en-3-amine]
1930	1630	2.11	NC1=N[C@@](c2cc(NC(=O)c3cc(Cl)ccn3)ccc2F)(C(F)F)[C@H]2C[C@H]2O1 [Example 287, N-(3-((1R,5S,6R)-3-amino-5-(difluoromethyl)-2-oxa-4-azabicyclo[4.1.0]hept-3-en-5-yl)-4-fluorophenyl)-4-chloropicolinamide]
2140	1320	0.703	C[C@@]1(c2nc(NC(=O)c3ccc(Cl)cn3)ccc2F)N=C(N)O[C@H]2C[C@H]21 [Example 327, N-(6-((1S,5R,6S)-3-amino-5-methyl-2-oxa-4-azabicyclo[4.1.0]hept-3-en-5-yl)-5-fluoropyridin-2-yl)-5-chloropicolinamide]
118	288	0.0696	COc1cnc(C(=O)Nc2cc(C)c(F)c([C@@]3(C(F)F)N=C(N)O[C@@H]4C[C@@H]43)c2)c(C)c1 [Example 305, N-(3-((1R,5S,6R)-3-amino-5-(difluoromethyl)-2-oxa-4-azabicyclo[4.1.0]hept-3-en-5-yl)-4-fluoro-5-methylphenyl)-5-methoxy-3-methylpicolinamide]
2.8	41	0.0014	C#CCOc1cnc(C(=O)Nc2cc(F)c(Cl)c([C@@]3(CF)N=C(N)O[C@@H]4C[C@@H]43)c2)cn1 [Example 317, N-(3-((1R,5S,6R)-3-amino-5-(fluoromethyl)-2-oxa-4-azabicyclo[4.1.0]hept-3-en-5-yl)-4-chloro-5-fluorophenyl)-5-(prop-2-yn-1-yloxy)pyrazine-2-carboxamide]
> 40000	2750	> 15.6	COc1cnc2c(Nc3ccc(F)c([C@@]4(CF)N=C(N)O[C@@H]5C[C@@H]54)c3F)nccc2n1 [Example 355, (1R,5S,6R)-5-(2,6-difluoro-3-((2-methoxypyrido[3,4-b]pyrazin-5-yl)amino)phenyl)-5-(fluoromethyl)-2-oxa-4-azabicyclo[4.1.0]hept-3-en-3-amine]
2100	52.9	1.15	NC1=N[C@@](c2cc(NCC3(C(F)(F)F)CC3)ccc2F)(C(F)F)[C@H]2C[C@H]2O1 [Example 376, (1R,5S,6R)-5-(difluoromethyl)-5-(2-fluoro-5-(((1-(trifluoromethyl)cyclopropyl)methyl)amino)phenyl)-2-oxa-4-azabicyclo[4.1.0]hept-3-en-3-amine]
33.5	400	0.254	NC1=N[C@@](c2cc(Nc3nccc4cc(Cl)cnc34)ccc2F)(C(F)F)[C@H]2C[C@H]2O1 [Example 362, (1R,5S,6R)-5-(5-((3-chloro-1,7-naphthyridin-8-yl)amino)-2-fluorophenyl)-5-(difluoromethyl)-2-oxa-4-azabicyclo[4.1.0]hept-3-en-3-amine]
314	684	0.0612	COc1cnc(C(=O)Nc2ccc(C)c([C@@]3(C(F)F)N=C(N)O[C@@H]4C[C@@H]43)c2)cn1 [Example 294, N-(3-((1R,5S,6R)-3-amino-5-(difluoromethyl)-2-oxa-4-azabicyclo[4.1.0]hept-3-en-5-yl)-4-methylphenyl)-5-methoxypyrazine-2-carboxamide]
413	> 400	0.139	COc1cc(F)cnc1C(=O)Nc1ccc(F)c([C@@]2(C(F)F)N=C(N)O[C@@H]3C[C@@H]32)c1 [Example 307, N-(3-((1R,5S,6R)-3-amino-5-(difluoromethyl)-2-oxa-4-azabicyclo[4.1.0]hept-3-en-5-yl)-4-fluorophenyl)-5-fluoro-3-methoxypicolinamide]
456	738	0.106	COc1cnc2c(Nc3ccc(F)c([C@@]4(C(F)F)N=C(N)O[C@@H]5C[C@@H]54)c3)nccc2c1 [Example 348, (1R,5S,6R)-5-(difluoromethyl)-5-(2-fluoro-5-((3-methoxy-1,7-naphthyridin-8-yl)amino)phenyl)-2-oxa-4-azabicyclo[4.1.0]hept-3-en-3-amine]
4780	1470	2.89	C#CCOc1cnc(C(=O)Nc2ccc(Cl)c([C@]3(CF)N=C(N)O[C@H]4C[C@H]43)c2)cn1 [Example 280, N-(3-((1S,5R,6S)-3-amino-5-(fluoromethyl)-2-oxa-4-azabicyclo[4.1.0]hept-3-en-5-yl)-4-chlorophenyl)-5-(prop-2-yn-1-yloxy)pyrazine-2-carboxamide]

Reference: US9085576B2 (AMGEN INC., priority 2013, dated 2015)
